ChEMBL document CHEMBL5608213, “Synthesis of furanotriterpenoids from betulin and evaluation of Tyrosyl-DNA phosphodiesterase 1 (Tdp1) inhibitory properties of new semi-synthetic triterpenoids” (Eur J Med Chem, 2024)

Experiments:
[1] = tested on: PC-3; test: Cytotoxicity against human PC-3 cells incubated for 72 hrs by MTT assay; format: functional
[2] = tested on: A549; test: Cytotoxicity against human A549 cells incubated for 72 hrs by MTT assay; format: functional
[3] = tested on: MDA-MB-453; test: Cytotoxicity against human MDA-MB-453 cells incubated for 72 hrs by MTT assay; format: functional
[4] = Cytotoxicity against human MCF-10A cells incubated for 72 hrs by MTT assay; format: toxicity, cell-based
[5] = tested on: MDA-MB-231; test: Cytotoxicity against human MDA-MB-231 cells incubated for 72 hrs by MTT assay; format: functional
[6] = Cytotoxicity against HEK293 cells incubated for 72 hrs by MTT assay; format: toxicity, cell-based; settings: human
[7] = target: Tyrosyl-DNA phosphodiesterase 1 (Homo sapiens, UniProt Q9NUW8); test: Inhibition of Tdp1 (unknown origin) using 5'-[FAM]AACGTCAGGGTCTTCC[BHQ1]-3' as substrate measured every 55 sec by fluorescence based analysis
Tyrosyl-DNA phosphodiesterase 1, sequence (Q9NUW8 whole entry): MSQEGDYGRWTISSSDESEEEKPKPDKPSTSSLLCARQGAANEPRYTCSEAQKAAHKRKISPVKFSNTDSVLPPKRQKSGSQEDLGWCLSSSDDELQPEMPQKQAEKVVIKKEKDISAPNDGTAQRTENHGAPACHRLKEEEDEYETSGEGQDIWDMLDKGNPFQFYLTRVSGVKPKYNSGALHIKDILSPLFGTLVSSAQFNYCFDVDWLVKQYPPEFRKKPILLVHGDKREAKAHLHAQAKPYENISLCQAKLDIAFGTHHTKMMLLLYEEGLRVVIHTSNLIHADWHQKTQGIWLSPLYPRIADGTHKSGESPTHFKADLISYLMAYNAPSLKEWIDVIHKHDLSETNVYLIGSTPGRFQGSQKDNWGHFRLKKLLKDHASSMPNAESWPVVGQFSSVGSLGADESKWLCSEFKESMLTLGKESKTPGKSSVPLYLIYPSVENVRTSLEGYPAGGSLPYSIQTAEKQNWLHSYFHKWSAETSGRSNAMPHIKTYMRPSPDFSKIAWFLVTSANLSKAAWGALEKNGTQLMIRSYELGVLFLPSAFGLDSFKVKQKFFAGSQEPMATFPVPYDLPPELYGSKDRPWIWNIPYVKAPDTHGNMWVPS

[8] = tested on: HCT-116; test: Cytotoxicity against human HCT-116 cells incubated for 72 hrs by MTT assay; format: functional
[9] = tested on: MCF7; test: Cytotoxicity against human MCF7 cells incubated for 72 hrs by MTT assay; format: functional
[10] = tested on: RD; test: Cytotoxicity against human RD cells incubated for 72 hrs by MTT assay; format: functional
[11] = tested on: HepG2; test: Cytotoxicity against human HepG2 cells incubated for 72 hrs by MTT assay; format: functional
[12] = Cytotoxicity against human Mel-MS cells incubated for 72 hrs by MTT assay; format: functional
[13] = Cytotoxicity against human HeLa-V cells incubated for 72 hrs by MTT assay; format: functional
[14] = Cytotoxicity against human HeLa-V cells assessed as reduction in cell viability incubated for 72 hrs in presence of 0.5 uM topotecan by MTT assay; format: functional
[15] = Sensitization of topotecan-induced cytotoxicity against human HeLa-V cells assessed as reduction in cell viability by measuring fold change in topotecan CC50 at 10 uM incubated for 72 hrs by MTT assay relative to topotecan alone; format: functional
[16] = Cytotoxicity against human HeLa-V cells assessed as cell viability at <=12.5 uM incubated for 72 hrs in presence of 0.5 uM topotecan by MTT assay relative to control; format: functional; settings: up to 12.5 µM

Row | IC50 [7] | Compound | CC50 [1] | CC50 [2] | CC50 [3] | CC50 at 72 h [4] | CC50 [5] | CC50 at 72 h [6] | CC50 [8] | CC50 [9] | CC50 [10] | CC50 [11] | CC50 [12] | CC50 [13] | CC50 [14] | fold change (FC) [15] | Activity [16]
1 | 9 µM | CC(C)[C@@H]1CC[C@]2(COC(=O)c3ccccc3)CC[C@]3(C)[C@H](CC[C@@H]4[C@@]5(C)[C@@H](O)C=CC(C)(C)[C@@H]5CC[C@]43C)[C@@H]12 | > 100 µM | > 100 µM | > 100 µM | > 100 µM | > 100 µM | > 100 µM | > 100 µM | > 100 µM | > 100 µM | > 100 µM | > 100 µM | > 100 µM |  |  | 
2 | 1.97 µM | C=C1[C@H](C(C)(C)[C@@H](O)CC#N)CC[C@]2(C)[C@@H]1CC[C@@H]1[C@H]3[C@H](C(C)C)CC[C@]3(COC(=O)c3ccccc3)CC[C@]12C | > 100 µM | > 100 µM | > 100 µM | > 100 µM | > 100 µM | > 100 µM | > 100 µM | > 100 µM | > 100 µM | > 100 µM | > 100 µM | > 100 µM | ≤ 35.1 µM | <1.5 | ~80%
3 |  | CC(C)[C@@H]1CC[C@]2(COC(=O)c3ccccc3)CC[C@]3(C)[C@H](CC[C@@H]4[C@@]5(C)CC[C@H](O)C(C)(C)[C@@H]5CC[C@]43C)[C@@H]12 | > 100 µM | > 100 µM | > 100 µM | > 100 µM | > 100 µM | > 100 µM | > 100 µM | > 100 µM | > 100 µM | > 100 µM | > 100 µM | > 100 µM |  |  | 
4 | 8 µM | C=C1[C@H]2CC[C@@H]3[C@H]4[C@H](C(C)C)CC[C@]4(COC(=O)c4ccccc4)CC[C@@]3(C)[C@]2(C)CC[C@@H]1C(C)(C)[C@@H]1O[C@H]1C#N | > 100 µM | > 100 µM | > 100 µM | > 100 µM | > 100 µM | > 100 µM | > 100 µM | > 100 µM | > 100 µM | > 100 µM | > 100 µM | > 100 µM |  |  | 
5 | 2.9 µM | CC(C)[C@@H]1CC[C@]2(CO)CC[C@]3(C)[C@H](CC[C@@H]4[C@@]5(C)/C(=N/O)C[C@@H](O)C(C)(C)[C@@H]5CC[C@]43C)[C@@H]12 | > 100 µM | > 100 µM | > 100 µM | > 100 µM | > 100 µM | > 100 µM | 57.4 µM | > 100 µM | > 100 µM | > 100 µM | > 100 µM | > 100 µM |  |  | 
6 | 7 µM | CC(C)[C@@H]1CC[C@]2(COC(=O)c3ccccc3)CC[C@]3(C)[C@H](CC[C@@H]4[C@@]5(C)OC(CC#N)C(C)(C)[C@@H]5CC[C@]43C)[C@@H]12 (mixture of isomers) | > 100 µM | 58.6 µM | > 100 µM | > 100 µM | > 100 µM | > 100 µM | > 100 µM | > 100 µM | > 100 µM | > 100 µM | > 100 µM | > 100 µM |  |  | 
7 | 5.1 µM | CC(C)[C@@H]1CC[C@]2(COC(=O)c3ccccc3)CC[C@]3(C)[C@H](CC[C@@H]4[C@@]5(C)[C@@H](O)[C@H]6O[C@H]6C(C)(C)[C@@H]5CC[C@]43C)[C@@H]12 | > 100 µM | > 100 µM | > 100 µM | > 100 µM | > 100 µM | > 100 µM | > 100 µM | > 100 µM | > 100 µM | > 100 µM | > 100 µM | > 100 µM |  |  | 
8 | 2.9 µM | CC(C)[C@@H]1CC[C@]2(COC(=O)c3ccccc3)CC[C@]3(C)[C@H](CC[C@@H]4[C@@]5(C)/C(=N/O)C[C@@H](O)C(C)(C)[C@@H]5CC[C@]43C)[C@@H]12 | > 100 µM | 57.7 µM | > 100 µM | > 100 µM | > 100 µM | > 100 µM | > 100 µM | > 100 µM | > 100 µM | > 100 µM | > 100 µM | > 100 µM |  |  | 
9 | 2 µM | CC(C)[C@@H]1CC[C@]2(COC(=O)c3ccccc3)CC[C@]3(C)[C@H](CC[C@@H]4[C@@]5(C)/C(=N/O)[C@H]6O[C@H]6C(C)(C)[C@@H]5CC[C@]43C)[C@@H]12 | 62.2 µM | > 100 µM | > 100 µM | > 100 µM | > 100 µM | > 100 µM | > 100 µM | > 100 µM | > 100 µM | > 100 µM | > 100 µM | 28 µM | 13.1 µM |  | 
10 |  | CC[C@@]1(O)C(=O)OCc2c1cc1n(c2=O)Cc2cc3c(CN(C)C)c(O)ccc3nc2-1 [TOPOTECAN] |  |  |  |  |  |  |  |  |  |  |  | 0.456 µM |  |  | 
11 | 3 µM | CC(C)[C@@H]1CC[C@]2(COC(=O)c3ccccc3)CC[C@]3(C)[C@H](CC[C@@H]4[C@@]5(C)C(=O)[C@H]6O[C@H]6C(C)(C)[C@@H]5CC[C@]43C)[C@@H]12 | > 100 µM | > 100 µM | > 100 µM | > 100 µM | > 100 µM | > 100 µM | > 100 µM | > 100 µM | > 100 µM | > 100 µM | > 100 µM | > 100 µM |  |  | 
12 |  | COc1cccc2c1C(=O)c1c(O)c3c(c(O)c1C2=O)C[C@@](O)(C(=O)CO)C[C@@H]3O[C@H]1C[C@H](N)[C@H](O)[C@H](C)O1 [DOXORUBICIN] | 12.6 µM | 2 µM | 0.04 µM | 0.5 µM | 0.34 µM | 0.4 µM | 1.3 µM | 0.4 µM | 1.3 µM | 1.8 µM | 1.3 µM | 2.67 µM |  |  | 
13 | 12.1 µM | CC(C)[C@@H]1CC[C@]2(COC(=O)c3ccccc3)CC[C@]3(C)[C@H](CC[C@@H]4[C@@]5(C)O[C@H](CC#N)C(C)(C)[C@@H]5CC[C@]43C)[C@@H]12 | > 100 µM | > 100 µM | > 100 µM | > 100 µM | > 100 µM | > 100 µM | > 100 µM | > 100 µM | > 100 µM | > 100 µM | > 100 µM | > 100 µM |  |  | 
14 | > 100 µM | CC(C)[C@@H]1CC[C@]2(COC(=O)c3ccccc3)CC[C@]3(C)[C@H](CC[C@@H]4[C@@]5(C)CC=CC(C)(C)[C@@H]5CC[C@]43C)[C@@H]12 | > 100 µM | > 100 µM | > 100 µM | > 100 µM | > 100 µM | > 100 µM | > 100 µM | > 100 µM | > 100 µM | > 100 µM | > 100 µM | > 100 µM |  |  | 

Row | Compound | IC50 [7] | CC50 [1] | CC50 [2] | CC50 [3] | CC50 at 72 h [4] | CC50 [5] | CC50 at 72 h [6] | CC50 [8] | CC50 [9] | CC50 [10] | CC50 [11] | CC50 [12] | CC50 [13] | CC50 [14] | fold change (FC) [15] | Activity [16]
15 | CC(C)[C@@H]1CC[C@]2(CO)CC[C@]3(C)[C@H](CC[C@@H]4[C@@]5(C)O[C@H](CC#N)C(C)(C)[C@@H]5CC[C@]43C)[C@@H]12 | 1 µM | > 100 µM | 89.9 µM | > 100 µM | > 100 µM | > 100 µM | > 100 µM | > 100 µM | 39.2 µM | 79 µM | > 200 µM | > 100 µM | 31.6 µM | 14.8 µM |  | ~80%
16 | CC1(C)CC[C@]23CC[C@]4(C)[C@H](CC[C@@H]5[C@@]6(C)O[C@H](CC#N)C(C)(C)[C@@H]6CC[C@]54C)[C@H]2[C@H]1OC3 | 3.59 µM | > 100 µM | 34 µM | > 100 µM | > 100 µM | > 100 µM | > 100 µM | 90.3 µM | 84.9 µM | > 100 µM | > 100 µM | > 100 µM | > 100 µM |  |  | 
17 | CC1(C)CC[C@]23CC[C@]4(C)[C@H](CC[C@@H]5[C@@]6(C)O[C@@H](CC#N)C(C)(C)[C@@H]6CC[C@]54C)[C@H]2[C@H]1OC3 | 8 µM |  |  |  |  |  |  |  |  |  |  |  |  |  |  | 
18 | CC1(C)CC[C@]23CC[C@]4(C)C(CC[C@@H]5C(=O)C(C(C)(C)[C@H](CC#N)OC(=O)Cl)CC[C@]54C)[C@H]2[C@H]1OC3 (some centres not stated) | > 100 µM | > 100 µM | > 100 µM | > 100 µM | > 100 µM | > 100 µM | > 100 µM | > 100 µM | > 100 µM | > 100 µM | > 100 µM | > 100 µM | > 100 µM |  |  | 
19 | CC(C)[C@@H]1CC[C@]2(COCc3ccccc3)CC[C@]3(C)[C@H](CC[C@@H]4C(=O)C(C(C)(C)[C@H](CC#N)OC(=O)Cl)CC[C@]43C)[C@@H]12 (some centres not stated) | 12 µM | > 100 µM | 56.9 µM | > 100 µM | > 100 µM | > 100 µM | > 100 µM | > 100 µM | > 100 µM | > 100 µM | > 100 µM | > 100 µM | > 100 µM |  |  | 
